In US11324742B2, “Treatment of demyelinating diseases” (Victoria Link Ltd., priority 2018, dated 2022):
Where two headings read alike, the source gives them in different places.

Assays:
[1] = tested on: myelin in corpus callosum of cuprizone-treated mice; assay: Cuprizone model, TEM of corpus callosum (g-ratio, myelinated axons, myelin area); assay type: in vivo, female C57BL/6 mice
[2] = tested on: cuprizone model of demyelination; assay: Cuprizone model, rotarod assay (coordination); assay type: in vivo, female C57BL/6 mice; details: 0.1 mg/kg daily i.p.; week 9 relative to week 5
[3] = tested on: infiltrating immune cells (CD45high) in brain of EAE mice; assay: EAE model, immune cell infiltration into the brain by flow cytometry; assay type: in vivo, female C57BL/6 mice
[4] = cited from earlier work
[5] = tested on: itch; details: human; cited from earlier work
[6] = tested on: cuprizone demyelination disease model of MS; assay: Cuprizone model, von Frey mechanical withdrawal threshold; assay type: in vivo, female C57BL/6 mice; details: 0.1 mg/kg/i.p. daily
[7] = tested on: leucocyte infiltration into the spinal cord of EAE mice; assay: EAE model, H&E staining of spinal cord (leucocyte infiltration); assay type: in vivo, female C57BL/6 mice; details: 0.01 mg/kg daily i.p. from onset; chronic phase
[8] = tested on: Substance P induced scratch; details: cited from earlier work
[9] = tested on: lymphocyte populations in the spleen of EAE mice; assay: EAE model, splenocytes by flow cytometry; assay type: in vivo, female C57BL/6 mice; details: 0.01 mg/kg daily i.p. from onset
[10] = tested on: Histamine induced scratch; details: PO, Togashi et al. (2002); cited from earlier work
[11] = tested on: cuprizone demyelination disease model of MS; assay: Cuprizone model of demyelination, weight change; assay type: in vivo, female C57BL/6 mice
[12] = tested on: Substance P induced scratch; assay: Substance P induced scratch mouse model; details: SC or IV administration, top two rows of the table only, read-out: average in vivo efficacy ED50 for itch model
[13] = tested on: activated GFAP+ astrocytes in the spinal cord of EAE mice; assay: EAE model, GFAP immunohistochemistry of spinal cord (activated astrocytes); assay type: in vivo, female C57BL/6 mice; details: 0.01 mg/kg daily i.p. from day 17; day 45
[14] = tested on: Morphine induced scratch; details: SC, EMA/CHMP/138212/2014; cited from earlier work
[15] = tested on: myelin in spinal cord of EAE mice; assay: EAE model, TEM of spinal cord sections; assay type: in vivo, female C57BL/6 mice; details: 0.03 mg/kg daily i.p. from day 17; day 45
[16] = tested on: myelin in spinal cord of EAE mice; assay: EAE model, luxol fast blue staining of spinal cord (demyelination); assay type: in vivo, female C57BL/6 mice
[17] = 0.1 mg/kg/i.p. daily from day 28, day 70

CN(C(=O)/C=C/c1ccoc1)[C@@H]1CC[C@@]2(O)[C@H]3Cc4ccc(O)c5c4[C@@]2(CCN3CC2CC2)[C@H]1O5 [nalfurafine, (E)-N-[(4R,4aS,7R,7aR,12bS)-3-(cyclopropylmethyl)-4a,9-dihydroxy-1,2,4,5,6,7,7a,13-octahydro-4,12-methanobenzofuro[3,2-e]isoquinoline-7-yl]-3-(furan-3-yl)-N-methylprop-2-enamide]
myelin in corpus callosum (TEM, g-ratio) ([1]; 0.1 mg/kg daily i.p. from week 4, day 65 (Example 9)): more myelin was detected | area of myelin staining per TEM image [1, 17]: percentage increase in area of myelination | mean g-ratio (corpus callosum) [1, 17]: 0.75±0.15 | number of myelinated axons vs non-myelinated axons [1, 17]: percentage increase in the number of myelinated axons | rotarod performance (coordination) [2]: reversed | number of infiltrating immune cells in brain (ratio to microglia) ([3]; 0.03 mg/kg daily i.p. from day 17, day 45): significantly reduced | number of infiltrating immune cells in brain (ratio to microglia) ([3]; 0.03 and 0.01 mg/kg daily i.p. from onset, chronic phase (>24 days)): significantly reduced | Bioavailability ([4]; intravenous (IV)): 100% | Bioavailability ([4]; oral (PO) administration): ~32% | Bioavailability ([4]; subcutaneous (s.c.)): 96% | effective dose in humans for itch [5]: 2.5 μg/body/day | mechanical withdrawal threshold (von Frey) ([6]; pre vs post treatment): reduced to baseline levels | mechanical threshold scores (von Frey) ([6]; vs vehicle treated mice): improved mechanical threshold scores | leucocyte infiltration score (0-3), H&E [7]: reduction of infiltrating leucocytes | Complete Inhibition ([8]; IV, EMA/CHMP/138212/2014): 7.5 to 10 µg/kg | ED50 ([8]; IV, EMA/CHMP/138212/2014): 3.77 µg/kg | Inhibition reached at the dose given under Complete Inhibition ([8]; PO, 100 μg/kg, EMA/CHMP/138212/2014): (66%) | Complete Inhibition ([8]; PO, EMA/CHMP/138212/2014): 100 µg/kg | ED50 ([8]; PO, EMA/CHMP/138212/2014): 9.61 µg/kg | Complete Inhibition ([8]; PO, Togashi et al. (2002)): 100 µg/kg | ED50 ([8]; PO, Togashi et al. (2002)): 19.6 µg/kg | Complete Inhibition ([8]; SC, EMA/CHMP/138212/2014): 10 µg/kg | ED50 ([8]; SC, EMA/CHMP/138212/2014): 1.65 µg/kg | proportion of major lymphocyte populations in spleen (CD4, CD8, B220; % live leukocytes) ([9]; 27 days post treatment initiation): do not alter | Teff:cm ratio (effector to central memory CD4 T cells) ([9]; 27 days, vs vehicle): reduced ratio | overall number of CD4 T cells in spleen ([9]; 27 days, vs vehicle): the same | Complete Inhibition [10]: 30 to 100 µg/kg | ED50 [10]: 7.3 µg/kg | % weight change in recovery phase ([11]; 0.1 mg/kg daily i.p. from day 28, cuprizone 35 days, vs vehicle or U-50488): enhances recovery of the lost weight faster | % weight change (reversal of cuprizone weight loss) ([11]; 0.1 mg/kg daily i.p. from week 4, 0.3% cuprizone 5 weeks, vs vehicle (Example 7)): reversed significantly more effectively | ED50 [12]: ~2.71 µg/kg | number of activated GFAP+ astrocytes per section [13]: significantly reduces | Complete Inhibition [14]: 5 to 10 µg/kg | ED50 [14]: 2.34 µg/kg | myelination of nerve axons in spinal cord (TEM) [15]: healthy and well-myelinated | lesion load and myelin density in ventral horn (luxol fast blue) ([16]; 0.01 mg/kg daily i.p. from onset, chronic phase (Example 25)): reduces this lesion load and demyelination | % demyelination of spinal cord (luxol fast blue) ([16]; 0.03 or 0.01 mg/kg daily i.p. from onset, chronic phase): significant reduction
